Tests used:
Mu-type opioid receptor [1] = molecular target: T1, Mu-type opioid receptor (Homo sapiens, UniProt P35372); assay: Agonist activity at human mu opioid receptor expressed in CHO cells by [35S]GTPgammaS binding assay; format: functional, cell-based
Mu-type opioid receptor [2] = molecular target: T1, Mu-type opioid receptor; assay: Agonist activity at human mu opioid receptor expressed in CHO cells by [35S]GTPgammaS binding assay relative to DAMGO; format: functional, cell-based
[3] = molecular target: T2, Delta-type opioid receptor (Homo sapiens, UniProt P41143); assay: Agonist activity at human delta opioid receptor expressed in CHO cells by [35S]GTPgammaS binding assay relative to SNC80; format: functional, cell-based
T2 sequence (P41143 whole entry): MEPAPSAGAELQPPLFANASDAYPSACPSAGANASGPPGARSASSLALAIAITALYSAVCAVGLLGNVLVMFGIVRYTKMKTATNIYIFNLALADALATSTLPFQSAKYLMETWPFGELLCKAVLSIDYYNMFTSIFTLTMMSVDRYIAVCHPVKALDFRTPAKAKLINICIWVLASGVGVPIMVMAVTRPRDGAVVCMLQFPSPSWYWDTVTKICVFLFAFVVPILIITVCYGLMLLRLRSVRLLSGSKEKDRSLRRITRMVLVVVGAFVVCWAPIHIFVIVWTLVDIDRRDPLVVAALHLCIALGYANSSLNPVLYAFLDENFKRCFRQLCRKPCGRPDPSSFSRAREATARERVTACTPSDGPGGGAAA

Mu-type opioid receptor [4] = molecular target: Mu-type opioid receptor (Mus musculus, UniProt P42866); assay: Displacement of [3H]DAMGO from mu opioid receptor in mouse brain membranes without cerebellum; format: cell membranes, Membrane
Chain of Mu-type opioid receptor (Mus musculus, UniProt P42866) (P42866 whole entry): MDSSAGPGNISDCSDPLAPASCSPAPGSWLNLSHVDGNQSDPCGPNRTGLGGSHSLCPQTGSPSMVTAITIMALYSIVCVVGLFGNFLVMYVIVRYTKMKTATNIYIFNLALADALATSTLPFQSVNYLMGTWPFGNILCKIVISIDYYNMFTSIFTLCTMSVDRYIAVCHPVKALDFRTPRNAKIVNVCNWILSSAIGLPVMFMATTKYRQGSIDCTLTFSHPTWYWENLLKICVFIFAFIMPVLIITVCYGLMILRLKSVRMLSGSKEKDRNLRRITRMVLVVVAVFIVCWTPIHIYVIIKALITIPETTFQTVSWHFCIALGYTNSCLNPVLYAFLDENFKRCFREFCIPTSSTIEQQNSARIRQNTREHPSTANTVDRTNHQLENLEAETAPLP

[5] = molecular target: Delta-type opioid receptor (Mus musculus, UniProt P32300); assay: Displacement of [3H]DPDPE from delta opioid receptor in mouse brain membranes without cerebellum; format: cell membranes, Membrane
Chain of Delta-type opioid receptor (Mus musculus, UniProt P32300) (P32300 whole entry): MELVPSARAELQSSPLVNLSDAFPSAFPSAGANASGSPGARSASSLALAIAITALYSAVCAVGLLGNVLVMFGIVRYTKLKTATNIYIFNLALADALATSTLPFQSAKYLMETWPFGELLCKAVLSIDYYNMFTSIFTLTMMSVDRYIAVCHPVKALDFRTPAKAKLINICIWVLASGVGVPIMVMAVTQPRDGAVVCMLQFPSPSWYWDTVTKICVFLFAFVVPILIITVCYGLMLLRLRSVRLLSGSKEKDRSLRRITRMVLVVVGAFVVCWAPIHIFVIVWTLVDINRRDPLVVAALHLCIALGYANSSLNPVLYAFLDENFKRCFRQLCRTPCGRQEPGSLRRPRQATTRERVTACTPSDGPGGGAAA

[6] = molecular target: Kappa-type opioid receptor (Cavia porcellus, UniProt P41144); assay: Displacement of [3H]U-69593 from kappa opioid receptor in guinea pig cerebellum
Chain of Kappa-type opioid receptor (Cavia porcellus, UniProt P41144) (P41144 whole entry): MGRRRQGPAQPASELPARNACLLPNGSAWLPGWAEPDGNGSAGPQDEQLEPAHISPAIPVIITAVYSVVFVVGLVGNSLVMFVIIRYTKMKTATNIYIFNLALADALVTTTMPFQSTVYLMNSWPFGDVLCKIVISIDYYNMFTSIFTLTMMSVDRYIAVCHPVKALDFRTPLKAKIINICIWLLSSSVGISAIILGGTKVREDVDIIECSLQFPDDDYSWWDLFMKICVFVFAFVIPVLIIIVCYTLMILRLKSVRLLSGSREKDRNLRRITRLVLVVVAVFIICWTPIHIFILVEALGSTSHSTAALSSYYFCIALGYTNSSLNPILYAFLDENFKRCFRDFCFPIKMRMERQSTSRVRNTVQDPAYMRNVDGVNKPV

[7] = Selectivity ratio of Ki for mu opioid receptor in mouse brain membranes without cerebellum to Ki for kappa opioid receptor in guinea pig cerebellum; format: cell membranes
[8] = molecular target: T2, Delta-type opioid receptor; assay: Agonist activity at human delta opioid receptor expressed in CHO cells by [35S]GTPgammaS binding assay; format: functional, cell-based
[9] = molecular target: T3, Kappa-type opioid receptor (Homo sapiens, UniProt P41145); assay: Agonist activity at human kappa opioid receptor expressed in CHO cells by [35S]GTPgammaS binding assay; format: functional, cell-based
T3 sequence (P41145 whole entry): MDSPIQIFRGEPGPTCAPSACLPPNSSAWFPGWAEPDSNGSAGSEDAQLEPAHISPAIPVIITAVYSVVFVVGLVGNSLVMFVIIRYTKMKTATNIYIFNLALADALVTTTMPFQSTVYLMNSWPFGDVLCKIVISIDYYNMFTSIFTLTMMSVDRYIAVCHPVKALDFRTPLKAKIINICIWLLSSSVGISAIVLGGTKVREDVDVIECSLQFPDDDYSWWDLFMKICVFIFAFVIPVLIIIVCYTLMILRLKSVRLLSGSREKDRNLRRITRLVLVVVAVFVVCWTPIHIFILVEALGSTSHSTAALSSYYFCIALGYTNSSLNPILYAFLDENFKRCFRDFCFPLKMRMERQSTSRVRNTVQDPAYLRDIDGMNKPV

[10] = molecular target: T3, Kappa-type opioid receptor; assay: Agonist activity at human kappa opioid receptor expressed in CHO cells by [35S]GTPgammaS binding assay relative to U-69593; format: functional, cell-based

T1 sequence (P35372 whole entry): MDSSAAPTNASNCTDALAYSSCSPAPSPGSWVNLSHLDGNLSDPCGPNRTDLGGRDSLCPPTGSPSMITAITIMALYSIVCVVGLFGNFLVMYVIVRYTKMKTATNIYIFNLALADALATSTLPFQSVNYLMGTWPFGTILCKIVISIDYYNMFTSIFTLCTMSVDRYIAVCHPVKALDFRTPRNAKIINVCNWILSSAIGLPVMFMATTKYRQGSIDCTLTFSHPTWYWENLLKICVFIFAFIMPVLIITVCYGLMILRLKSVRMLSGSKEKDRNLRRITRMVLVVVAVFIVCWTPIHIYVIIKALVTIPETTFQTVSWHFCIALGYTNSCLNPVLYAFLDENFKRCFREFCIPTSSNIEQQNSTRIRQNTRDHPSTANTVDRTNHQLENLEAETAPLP

| SMILES | EC50 (Mu-type opioid receptor [1]) | Emax (Mu-type opioid receptor [2]) | Emax [3] | Ki (Mu-type opioid receptor [4]) | Ki [5] | Ki [6] | Ratio Ki [7] | EC50 [8] | EC50 [9] | Emax [10] |
| --- | --- | --- | --- | --- | --- | --- | --- | --- | --- | --- |
| CN(C(=O)/C=C/c1ccoc1)[C@@H]1CC[C@@]2(O)[C@H]3Cc4ccc(O)c5c4[C@@]2(CCN3CC2CC2)[C@H]1O5 [NALFURAFINE] | 0.72 nM | 70.4% | 55.2% |  |  |  |  |  |  |  |
| O=C(C[C@@H]1N[C@@]23CC[C@]1(O)C1Oc4c(O)ccc5c4C12CCN(CC1CC1)C3C5)NCc1ccccc1 (some centres undefined) |  |  |  | 0.13 nM | 1.12 nM | 0.11 nM | 1.16 |  |  |  |
| O=C(C[C@H]1N[C@@]23CC[C@]1(O)C1Oc4c(O)ccc5c4C12CCN(CC1CC1)C3C5)NCc1ccccc1 (some centres undefined) |  |  |  | 0.052 nM | 0.15 nM | 0.037 nM | 1.42 |  |  |  |
| O=C1C[C@H]2N(CN1Cc1ccccc1)[C@@]13CC[C@]2(O)C2Oc4c(O)ccc5c4C21CCN(CC1CC1)C3C5 (some centres undefined) |  |  |  | 0.43 nM | 4.93 nM | 1.54 nM | 0.28 |  |  |  |
| O=C(Nc1ccccc1)C1=N[C@@]23CC[C@]1(O)C1Oc4c(O)ccc5c4C12CCN(CC1CC1)C3C5 (some centres undefined) |  |  |  | 0.36 nM | 0.32 nM | 0.38 nM | 0.95 |  |  |  |
| O=C(NCCc1ccccc1)C1=N[C@@]23CC[C@]1(O)C1Oc4c(O)ccc5c4C12CCN(CC1CC1)C3C5 (some centres undefined) | 1.09 nM | 44.9% |  | 0.4 nM | 0.86 nM | 0.12 nM | 3.5 | > 1000 nM | 0.18 nM | 76.3% |
| O=C1C[C@@H]2N(CN1Cc1ccccc1)[C@@]13CC[C@]2(O)C2Oc4c(O)ccc5c4C21CCN(CC1CC1)C3C5 (some centres undefined) |  |  |  | 0.68 nM | 3.83 nM | 7.74 nM | 0.09 |  |  |  |
| O=C(NCc1ccccc1)[C@@H]1N[C@@]23CC[C@]1(O)C1Oc4c(O)ccc5c4C12CCN(CC1CC1)C3C5 (some centres undefined) |  |  |  | 0.15 nM | 0.45 nM | 0.18 nM | 0.83 |  |  |  |
| O=C(NCc1ccccc1)[C@H]1N[C@@]23CC[C@]1(O)C1Oc4c(O)ccc5c4C12CCN(CC1CC1)C3C5 (some centres undefined) |  |  |  | 0.24 nM | 0.81 nM | 0.23 nM | 1.04 |  |  |  |
| O=C(NCc1ccccc1)C1=N[C@@]23CC[C@]1(O)C1Oc4c(O)ccc5c4C12CCN(CC1CC1)C3C5 (some centres undefined) | 0.4 nM | 101% | 93.2% | 0.14 nM | 0.61 nM | 0.043 nM | 3.25 | 1.7 nM | 0.033 nM | 91.2% |
| Oc1ccc2c3c1OC1C34CCN(CC3CC3)C(C2)[C@]42CC[C@@]1(O)C=N2 (some centres undefined) |  |  |  | 0.28 nM | 6.12 nM | 1.42 nM | 0.2 |  |  |  |
